What was measured:
[1] = target: T1, Dopamine D2 Receptor (hD2L) (Homo sapiens, UniProt P14416); assay: Dopamine D2 Receptor Binding Assay ([3H]spiperone, CHO-hD2L membranes); settings: [3H]spiperone 0.4 nM, HCl salt tested
T1 construct: expressed in transfected cells; host or cells: CHO cells (CHO-hD2L)
Description: 1) Dopamine D2 Receptor Binding Assay
[^3H]Spiperone binding to a membrane preparation from CHO-hD2L cells was carried out in 250 μL of 50 mM Tris-HCl buffer containing 100 mM NaCl, 1 mM MgCl2 and 1% DMSO at pH 7.4. Duplicate samples containing (in order of addition) the test compound, 0.4 nM [^3H]spiperone and approximately 12 μg protein were incubated for 120 min at room temperature. Bound radioligand was separated by rapid filtration under reduced pressure through Whatman GF/B glass fiber filters previously treated with 0.3% polyethyleneimine (PEI). Radioactivity retained on the filter was determined by liquid scintillation spectrophotometry. Specific binding determined in the presence of 1 mM haloperidol was 95%.

[2] = target: T2, Serotonin 1A (5-HT1A) Receptor (Homo sapiens, UniProt P08908); assay: Serotonin 1A (5-HT1A) Receptor Binding Assay ([3H]8-OH-DPAT, transfected HeLa membranes); settings: [3H]8-OH-DPAT 2.0 nM, transfected HeLa cell membranes; HCl salt tested
T2 construct: expressed in transfected cells; host or cells: HeLa cells
T2 sequence (P08908 1-422): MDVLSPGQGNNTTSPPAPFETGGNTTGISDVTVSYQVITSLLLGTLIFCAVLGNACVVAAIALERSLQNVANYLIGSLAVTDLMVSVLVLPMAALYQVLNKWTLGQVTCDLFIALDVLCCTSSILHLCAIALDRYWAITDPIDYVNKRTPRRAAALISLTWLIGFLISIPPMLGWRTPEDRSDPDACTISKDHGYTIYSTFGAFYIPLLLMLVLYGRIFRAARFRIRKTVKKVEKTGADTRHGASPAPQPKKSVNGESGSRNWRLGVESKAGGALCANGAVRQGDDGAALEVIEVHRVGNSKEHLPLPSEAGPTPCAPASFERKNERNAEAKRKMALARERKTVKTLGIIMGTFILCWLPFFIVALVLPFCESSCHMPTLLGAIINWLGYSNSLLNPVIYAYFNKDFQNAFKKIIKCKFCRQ
Description: 2) Serotonin 1A (5-HT1A) Receptor Binding Assay
The assay was conducted in membranes prepared from HeLa cells transfected with the cDNA for […] receptors using [^3H] 8-hydroxy-2-(di-n-propylamino)-tetraline ([^3H] 8-OH-DPAT, final concentration 2.0 nM) as reference […] receptor agonist. Assay buffer consisted of 50 mM Tris-HCl with 10 mM MgSO4, 0.5 mM EDTA and 0.1% ascorbic acid, at pH 7.4 (250 μL total volume). Triplicate samples containing (in order of addition) the test compound, 100× in 100% DMSO, [^3H] 8-OH-DPAT and cell homogenate was incubated for 2 hr at room temperature. Experiments were terminated by rapid filtration through Whatman GF/B glass fiber filters soaked in assay buffer with 0.3% PEI by washing three timnes with 1 mL of wash buffer (50 mM Tris-HCl, pH 7.4) using a Brandel MLR-96T cell harvester. Specific binding (85%) was determined in the presence of 10 μM 8-OH-DPAT.

[3] = target: T3, D2 receptor (CHO pro-5 cells) (Homo sapiens, UniProt P14416); assay: [3H]Thymidine Uptake Assay for Dopamine D2 Intrinsic Activity; type: cell-based; settings: relative to 1 μM Quinpirole classified as 100% intrinsic activity; HCl salt tested
T3 construct: expressed in transfected cells; host or cells: CHO pro-5 cells
T3 sequence (P14416 whole entry): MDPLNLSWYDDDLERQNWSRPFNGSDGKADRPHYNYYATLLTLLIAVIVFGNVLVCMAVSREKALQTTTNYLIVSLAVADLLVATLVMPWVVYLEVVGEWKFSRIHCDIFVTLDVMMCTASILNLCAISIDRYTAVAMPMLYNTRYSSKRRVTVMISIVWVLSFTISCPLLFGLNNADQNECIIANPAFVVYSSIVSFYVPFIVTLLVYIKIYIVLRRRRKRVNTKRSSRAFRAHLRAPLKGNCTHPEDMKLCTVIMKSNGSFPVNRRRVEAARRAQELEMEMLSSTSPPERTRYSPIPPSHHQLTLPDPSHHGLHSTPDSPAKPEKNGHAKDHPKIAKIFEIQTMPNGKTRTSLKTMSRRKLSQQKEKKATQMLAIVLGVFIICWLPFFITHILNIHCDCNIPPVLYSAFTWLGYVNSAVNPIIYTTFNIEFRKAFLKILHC
Description: 3) [^3H]Thymidine Uptake Assay for Dopamine D2 Intrinsic Activity
The assay was conducted using CHO pro-5 cells containing the D2 receptor and conventional 96-well sterile plates. Serum was removed from the cells by washing the cells twice with 200 μL of serum-free media. 90 μL serum-free media was added to each well. The plates ware incubated for two to three hours. 10 μL of serum-containing media, as a positive control, vehicle (serum-free media), antagonist control (haloperidol), or the test compound, and standards (10 μL of a 10 μM solution for a final concentration of 1 μM) in serum-free media were added to wells. The plates were returned to the incubator. Eighteen hours later [^3H]thymidine was added (0.5 μCi/well in 10 μL of serum-free media) and the plates were returned to the incubator. Four hours later trypsin (0.25%) was added (100 μL/well). The plates were returned to the incubator, once again. One hour later the assay was terminated by rapid filtration through Whatman GF/C glass fiber filters. Filters were washed four times with […] of 50 mM Tris-HCl pH 7.0 buffer, for example, using a Brandel MLR-96T cell harvester. Radioactivity remaining on the filters was estimated with a Wallac 1205 Betaplate liquid scintillation counter (50% efficiency). Intrinsic activity is defined as total uptake (1 μM Quinpirole) minus serum-free media (no uptake). […]

[4] = target: T4, h5-HT1A (CHO p-5 cells) (Homo sapiens, UniProt P08908); assay: [3H]Thymidine Uptake Assay for Serotonin 1A Intrinsic Activity; type: cell-based; settings: relative to 1 μM (+)-8-OH-DPAT classified as 100% response; HCl salt tested
T4 construct: expressed in transfected cells
T4 sequence (P08908 1-422): T2 sequence (P08908 1-422)
Description: 4) [^3H]Thymidine Uptake Assay for Serotonin 1A Intrinsic Activity
CHO p-5 cells transfected with h5-HT1A cDNA were seeded into 96-well plates at a density of approximately […] cells/well. These were grown for 3 days at 37° C. in an incubator with alpha minimum essential medium (αMEM) and 10% fetal calf serum containing penicillin (100 U/mL) and streptomycin (100 μg/mL). The wells were then rinsed by washing twice with 200 μL of serum-free media, and 90 μL serum-free media was added to each well. The plates were incubated for two to three hours, then 10 μL of serum-containing media (positive control), vehicle (10 μL DMSO), negative control (10 μL of an antagonist in DMSO) or different concentrations of the test compound and standards (10 μL DMSO solution) in serum-free media were added to appropriate wells. The plates were incubated for 18 hrs. Then [^3H]thymidine was added (0.5 μCi/well in 10 μL of serum-free media) after which the plates were returned to the incubator. Four hours later, trypsin (0.25%) was added (100 μL/well), and plates were returned again to the incubator. The assay was terminated 1 hr later by rapid filtration through Whatman GF/C glass fiber filters. […] Radioactivity remaining on the filters was estimated with a Wallac 1205 Betaplate liquid scintillation counter (50% efficiency). […]

T1 sequence (P14416 whole entry): as above

SMILES: O=c1ccc2ccc(OCCCCN3CCN(c4cccc(Cl)c4C(F)(F)F)CC3)nc2[nH]1 [compound of formula (I), 7-(4-{4-[3-chloro-2-(trifluoromethyl)phenyl]piperazine-1-yl}butoxy)-[1,8]-naphthyridin-2(1H)-one]
- Ki [1]: 3.9 nM
- Ki [2]: 4 nM
- Emax [3]: 55%
- Emax [4]: 90%
